Measurements published in ChEMBL document CHEMBL2010696, “Discovery, optimisation and in vivo evaluation of novel GPR119 agonists” (Bioorg Med Chem Lett, 2011).
Converted amounts (≈) assume the structure as drawn.

Columns and labels:
[1] = physchem; conditions: octanol/water
Description: Lipophilicity, log D of the compound

[2] = physchem
Description: Solubility of the compound

[3] = in vivo; conditions: mouse, po, 5 mg/kg
Description: Oral bioavailability in mouse at 5 mg/kg

[4] = in vitro; conditions: mouse, plasma
Description: Fraction unbound in mouse plasma

[5] = in vivo; conditions: dog, iv, 2 mg/kg
Description: Half life in dog at 2 mg/kg, iv

[6] = in vitro; conditions: rat, plasma
Description: Fraction unbound in rat plasma

[7] = in vivo; conditions: mouse, iv, 2 mg/kg
Description: Half life in mouse at 2 mg/kg, iv

[8] = in vivo; conditions: mouse, iv, 2 mg/kg; remark: listed apart in the source
Description: Volume of distribution at steady state in mouse at 2 mg/kg, iv and 5 mg/kg, po

[9] = in vivo; conditions: rat, iv, 2 mg/kg
Description: Volume of distribution at steady state in rat at 2 mg/kg, iv and 5 mg/kg, po

[10] = in vitro; conditions: human, plasma
Description: Fraction unbound in human plasma

[11] = in vivo; conditions: mouse, po, 5 mg/kg; remark: listed apart in the source
Description: Half life in mouse at 5 mg/kg, po

[12] = in vivo; conditions: dog, po, 13 mg/kg
Description: Half life in dog at 13 mg/kg, po

[13] = in vivo; conditions: dog, iv, 2 mg/kg; remark: listed apart in the source
Description: Volume of distribution at steady state in dog at 2 mg/kg, iv and 13 mg/kg, po

[14] = in vivo; conditions: dog, po, 13 mg/kg; remark: listed apart in the source
Description: Oral bioavailability in dog at 13 mg/kg

[15] = in vivo; conditions: rat, po, 5 mg/kg
Description: Cmax in rat at 5 mg/kg, po

[16] = in vivo; conditions: rat, po, 5 mg/kg; remark: listed apart in the source
Description: Half life in rat at 5 mg/kg, po

[17] = in vivo; conditions: rat, plasma, iv, 2 mg/kg
[18] = in vitro; conditions: dog, plasma
Description: Fraction unbound in dog plasma

[19] = in vivo; conditions: rat, po, 5 mg/kg; remark: listed apart in the source
Description: Oral bioavailability in rat at 5 mg/kg

[20] = in vitro; conditions: dog, MDCK
Description: Apparent permeability across apical to basolateral side in dog MDCK cells at 10 uM

[21] = in vitro; conditions: human, Caco-2
[22] = in vivo; conditions: mouse, plasma, iv, 2 mg/kg
[23] = in vivo; conditions: dog, iv, 2 mg/kg; remark: listed apart in the source
[24] = in vivo; conditions: rat, iv, 2 mg/kg; remark: listed apart in the source
Description: Half life in rat at 2 mg/kg, iv

[25] = in vivo; conditions: mouse, po, 5 mg/kg; remark: listed apart in the source
Description: Cmax in mouse at 5 mg/kg, po

[26] = in vivo; conditions: dog, po, 13 mg/kg; remark: listed apart in the source
Description: Cmax in dog at 13 mg/kg, po

With `CN(C(=O)Cc1ccc(-n2cnnn2)cc1)[C@H]1CCN(Cc2ccc(C(F)(F)F)cc2)C[C@H]1F` as the compound, how does the logD [1] read?
Its logD is 3.3.

With `CO[C@H]1CN(Cc2ccc(C(F)(F)F)cc2)CC[C@H]1N(C)C(=O)Cc1ccc(-n2cnnn2)cc1` as the compound, how does the logD [1] read?
Its logD is 3.

For `Cc1nc(-c2ccc(CN3CCC(N(C)C(=O)Cc4ccc(-n5cnnn5)cc4)CC3)cc2)no1`, which logD [1] is on record?
The logD was 2.1.

With `CN(C(=O)Cc1ccc(-n2cnnn2)cc1)C1CCN(Cc2ccc(C(F)(F)F)cc2)CC1` as the compound, how does the solubility [2] read?
The solubility was 18 µM (≈ 8.25 µg/mL).

And the bioavailability [3]?
Its bioavailability is 64%.

What about the fraction unbound [4] of the same compound?
Its fraction unbound is 0.099.

What about the half-life [5] of the same compound?
The half-life was 20 h.

And the fraction unbound [6]?
Its fraction unbound is 0.081.

What about the half-life [7] of the same compound?
Its half-life is 2.2 h.

What about the Vd [8] of the same compound?
Its Vd is 2 L/kg.

What about the Vd [9] of the same compound?
The Vd was 1.4 L/kg.

What about the fraction unbound [10] of the same compound?
Its fraction unbound is 0.076.

What about the half-life [11] of the same compound?
Its half-life is 2.4 h.

What about the half-life [12] of the same compound?
Its half-life is 18 h.

And the Vd [13]?
Its Vd is 2.3 L/kg.

What about the bioavailability [14] of the same compound?
Its bioavailability is 35%.

What about the Cmax [15] of the same compound?
The Cmax was 2400 nM.

And the half-life [16]?
Its half-life is 2.8 h.

And the clearance [17]?
Its clearance is 6.8 mL/min/kg.

And the fraction unbound [18]?
Its fraction unbound is 0.068.

What about the bioavailability [19] of the same compound?
Its bioavailability is 66%.

What about the logD [1] of the same compound?
The logD was 3.

What about the Papp A→B at 10 µM [20] of the same compound?
Its Papp A→B at 10 µM is 17 ×10⁻⁶ cm/s.

What about the Papp A→B at 10 µM [21] of the same compound?
The Papp A→B at 10 µM was 57 ×10⁻⁶ cm/s.

And the clearance [22]?
The clearance was 12 mL/min/kg.

And the clearance [23]?
The clearance was 1.3 mL/min/kg.

And the half-life [24]?
Its half-life is 2.8 h.

What about the Cmax [25] of the same compound?
The Cmax was 2200 nM.

And the Cmax [26]?
The Cmax was 6400 nM.

With `CN(C(=O)Cc1ccc(-n2cnnn2)cc1)[C@@H]1CCN(Cc2ccc(C(F)(F)F)cc2)C[C@@H]1F` as the compound, how does the logD [1] read?
Its logD is 3.3.

For `CO[C@@H]1CN(Cc2ccc(C(F)(F)F)cc2)CC[C@@H]1N(C)C(=O)Cc1ccc(-n2cnnn2)cc1`, which logD [1] is on record?
Its logD is 3.1.
